Data: US6380267B1, “Composition and method for decreasing neurologic symptomatology” (priority 1999, dated 2002)

Experiments:
Type in all cases: in vivo, human
[1] = system: patient who had Parkinson's Disease with tremor at rest and gait disturbance; experiment: Treatment of a Parkinson's Disease patient with tremor at rest and gait disturbance with sildenafil (Example II); settings: one patient
Method: (§1) A patient who had Parkinson's Disease for fifteen years and who suffered from tremor at rest and gait disturbance was treated with the method for decreasing neurologic symptomatology according to the present invention. […] The patient was initially treated with 25 mg of sildenafil per day.

[2] = system: patients with Parkinson's Disease and dyskinesias; experiment: Treatment of seven patients with Parkinson's Disease and dyskinesias with sildenafil (Example III)
Method: Seven additional patients with Parkinson's Disease and dyskinesias were treated with sildenafil at a dose of 25 mg per day in addition to their usual Parkinson's Disease medications. The patents were all Caucasian and ranged in age from between 55 to 70 years. Four of the patients were men and three were women.

[3] = system: patient who had Parkinson's Disease and severe dyskinesia; experiment: Treatment of a Parkinson's Disease patient with severe dyskinesia with sildenafil (Example I); settings: one patient
Method: as §1, with “twelve” for “fifteen”, “severe dyskinesia affecting all their extremities” for “tremor at rest”, “their head and neck for five years” for “gait disturbance”, “50” for “25”

[4] = 25 mg sildenafil per day, after five months of treatment, on levodopa

patients reporting facial flushing ([2]; 25 mg per day): one
patients with any worsening of their Parkinson's Disease symptoms ([2]; 25 mg per day): None
Structure (SMILES): CCCc1nn(C)c2c(=O)[nH]c(-c3cc(S(=O)(=O)N4CCN(C)CC4)ccc3OCC)nc12 [sildenafil]
gait disturbance [1, 4]: improved significantly
tremor [1, 4]: ceased
signs and symptoms of Parkinson's Disease ([1]; after more than seven months of treatment, sildenafil 25 mg three times per day, levodopa 250 mg per day): significantly improved
patients with any significant side effects of sildenafil treatment ([2]; 25 mg per day): None
patients with significant improvement in their dyskinesias ([2]; 25 mg per day in addition to usual Parkinson's Disease medications): Five of the seven
dyskinesias during treatment ([3]; 50 mg sildenafil per day initially, on levodopa): significantly reduced
signs and symptoms of Parkinson's Disease ([3]; after more than one year of treatment, sildenafil decreased to 25 mg, levodopa 300-400 mg per day): significantly improved
